Laboratory results published in patent US7960415B2, “Caspase inhibitors and uses thereof” (Vertex Pharmaceutical Incoporated, priority 2003, dated 2011).

Columns and labels:
rat cortical neurons = assay: Hypoxia-induced apoptosis of rat cortical neurons; type: cell-based, Wistar rat; conditions: Cortical neurone, 95% N2/5% CO2, Cell Death Detection ELISA (DNA fragmentation)
Description: Cortical neurons are dissociated from Wistar rat embryos (E17) by a modification of the procedure of Rogers et al. 1997, Brain Res. Bulletin, 44:131. Briefly, cerebral cortices are isolated aseptically from 15-20 Wistar rat embryos. A cell suspension is prepared by mincing the cerebral cortices and digesting them with papain. Cells are washed with ovomucoid enzyme inhibitor and DNaseI and plated onto Poly-D lysine coated plates in high glucose DMEM containing 10% heat-inactivated fetal calf serum, L-glutamine, penicillin and streptomycin. The yield of neurons is […] per embryo and they are 80-90% viable as assessed by Trypan blue exclusion.
The neurons are cultured in complete medium at 37° C. in a normal atmosphere for 48 hours prior to the hypoxia experiments. For hypoxia, the normal cell medium is replaced by oxygen-depleted serum-free medium. Cells are incubated in an atmosphere of 95% N2/5% CO2 for various lengths of time. Compounds are dissolved in DMSO at 100 mM then diluted in medium and added to the culture from time=0. The level of apoptosis is measured using a Cell Death Detection ELISA kit (Roche) which detects DNA fragmentation. Plates are read at 405 nm. Controls included cells cultured in aerobic conditions in serum-containing medium (+serum) and cells cultured in aerobic conditions in serum-deprived medium (−serum).

[1] = test system: IL-1β secretion from human whole blood; assay: Inhibition of IL-1β secretion from whole blood; type: cell-based; conditions: human whole blood diluted 1:2, LPS 5 ng/ml, 18 hours, ELISA
Description: Human blood is freshly drawn from healthy donors and diluted 1:2 in PBS. To 500 μl of diluted blood […] of prediluted test compound in RPMI medium and […] LPS (5 ng/ml final concentration on the plate) are added (LPS, Serotype 0111:B4, Sigma L3012). After stimulation for 18 hours supernatants are collected and assayed for IL-1β levels using the appropriate ELISA kit (R&D systems).

Structure (SMILES)	IC50 [1] [nM]	IC50 (rat cortical neurons) [nM]
CC[C@@H](C(=O)N[C@@H](CC(=O)O)C(=O)COc1c(F)c(F)cc(F)c1F)n1cccc(NC(=O)N(CC)CC)c1=O [Compound 15, (S,S)-3-{2-[3-(3,3-Diethyl-ureido)-2-oxo-2H-pyridin-1-yl]-butyrylamino}-4-oxo-5-(2,3,5,6-tetrafluoro-phenoxy)-pentanoic acid]	500 to 5000	< 1000
CC[C@@H](C(=O)N[C@@H](CC(=O)O)C(=O)COc1c(F)c(F)cc(F)c1F)n1cccc(NS(=O)(=O)c2ccccc2)c1=O [Compound 21, (S,S)-3-[2-(3-Benzenesulfonylamino-2-oxo-2H-pyridin-1-yl)-butyrylamino]-4-oxo-5-(2,3,5,6-tetrafluoro-phenoxy)-pentanoic acid]	500 to 5000	1000 to 10000
CC(C)[C@@H](C(=O)N[C@@H](CC(=O)O)C(=O)COc1c(F)c(F)cc(F)c1F)n1cccc(NC(=O)Cc2ccccc2)c1=O [Compound 23, (S,S)-3-[3-Methyl-2-(2-oxo-3-phenylacetylamino-2H-pyridin-1-yl)-butyrylamino]-4-oxo-5-(2,3,5,6-tetrafluoro-phenoxy)-pentanoic acid]	500 to 5000	
CCCNc1cccn([C@@H](CC)C(=O)N[C@@H](CC(=O)O)C(=O)COc2c(F)c(F)cc(F)c2F)c1=O [Compound 39, (S,S)-4-Oxo-3-[2-(2-oxo-3-propylamino-2H-pyridin-1-yl)-butyrylamino]-5-(2,3,5,6-tetrafluoro-phenoxy)-pentanoic acid]	500 to 5000	< 1000
CC[C@@H](C(=O)N[C@@H](CC(=O)O)C(=O)COc1c(F)c(F)cc(F)c1F)n1cccc(NC(=O)c2cccnc2)c1=O [Compound 9, (S,S)-4-Oxo-3-(2-{2-oxo-3-[(pyridine-3-carbonyl)-amino]-2H-pyridin-1-yl}-butyrylamino)-5-(2,3,5,6-tetrafluoro-phenoxy)-pentanoic acid]	500 to 5000	1000 to 10000
CCS(=O)(=O)Nc1cccn([C@H](C(=O)N[C@@H](CC(=O)O)C(=O)COc2c(F)c(F)cc(F)c2F)C(C)C)c1=O [Compound 24, (S,S)-3-[2-(3-Ethanesulfonylamino-2-oxo-2H-pyridin-1-yl)-3-methyl-butyrylamino]-4-oxo-5-(2,3,5,6-tetrafluoro-phenoxy)-pentanoic acid]		1000 to 10000
CC[C@@H](C(=O)N[C@@H](CC(=O)O)C(=O)COc1c(F)c(F)cc(F)c1F)n1cccc(NC(=O)Cc2ccccc2)c1=O [Compound 12, (S,S)-4-Oxo-3-[2-(2-oxo-3-phenylacetylamino-2H-pyridin-1-yl)-butyrylamino]-5-(2,3,5,6-tetrafluoro-phenoxy)-pentanoic acid]	500 to 5000	< 1000
CC[C@@H](C(=O)N[C@@H](CC(=O)O)C(=O)COc1c(F)c(F)cc(F)c1F)n1cccc(NS(=O)(=O)C(C)C)c1=O [Compound 20, (S,S)-4-Oxo-3-{2-[2-oxo-3-(propane-2-sulfonylamino)-2H-pyridin-1-yl]-butyrylamino}-5-(2,3,5,6-tetrafluoro-phenoxy)-pentanoic acid]	500 to 5000	< 1000
CC[C@@H](C(=O)N[C@@H](CC(=O)O)C(=O)COc1c(F)c(F)cc(F)c1F)n1cccc(NC(=O)c2ccoc2)c1=O [Compound 8, (S,S)-3-(2-{3-[(Furan-3-carbonyl)-amino]-2-oxo-2H-pyridin-1-yl}-butyrylamino)-4-oxo-5-(2,3,5,6-tetrafluoro-phenoxy)-pentanoic acid]	500 to 5000	1000 to 10000

Further lines, with some results ahead:

IC50 [1] [nM]	Structure (SMILES)	IC50 (rat cortical neurons) [nM]
500 to 5000	CC[C@@H](C(=O)N[C@@H](CC(=O)O)C(=O)COc1c(F)c(F)cc(F)c1F)n1cccc(Nc2nccs2)c1=O [Compound 38, (S,S)-4-Oxo-3-{2-[2-oxo-3-(thiazol-2-ylamino)-2H-pyridin-1-yl]-butyrylamino}-5-(2,3,5,6-tetrafluoro-phenoxy)-pentanoic acid]	< 1000
500 to 5000	CC[C@@H](C(=O)N[C@@H](CC(=O)O)C(=O)COc1c(F)c(F)cc(F)c1F)n1cccc(NC(=O)COC)c1=O [Compound 6, (S,S)-3-{2-[3-(2-Methoxy-acetylamino)-2-oxo-2H-pyridin-1-yl]-butyrylamino}-4-oxo-5-(2,3,5,6-tetrafluoro-phenoxy)-pentanoic acid]	1000 to 10000
< 500	CC[C@@H](C(=O)N[C@@H](CC(=O)O)C(=O)COc1c(F)c(F)cc(F)c1F)n1cccc(NC(=O)c2ccsn2)c1=O [Compound 10, (S,S)-3-(2-{3-[(Isothiazole-3-carbonyl)-amino]-2-oxo-2H-pyridin-1-yl}-butyrylamino)-4-oxo-5-(2,3,5,6-tetrafluorophenoxy)-pentanoic acid]	< 1000
500 to 5000	CC[C@@H](C(=O)N[C@@H](CC(=O)O)C(=O)COc1c(F)c(F)cc(F)c1F)n1cccc(NC(=O)N2CCCC2)c1=O [Compound 16, (S,S)-4-Oxo-3-(2-{2-oxo-3-[(pyrrolidine-1-carbonyl)-amino]-2H-pyridin-1-yl}-butyrylamino)-5-(2,3,5,6-tetrafluoro-phenoxy)-pentanoic acid]	1000 to 10000
< 500	CCNC(=O)Nc1cccn([C@@H](CC)C(=O)N[C@@H](CC(=O)O)C(=O)COc2c(F)c(F)cc(F)c2F)c1=O [Compound 14, (S,S)-3-{2-[3-(3-Ethyl-ureido)-2-oxo-2H-pyridin-1-yl]-butyrylamino}-4-oxo-5-(2,3,5,6-tetrafluoro-phenoxy)-pentanoic acid]	1000 to 10000
< 500	CCCC(=O)Nc1cccn([C@@H](CC)C(=O)N[C@@H](CC(=O)O)C(=O)COc2c(F)c(F)cc(F)c2F)c1=O [Compound 3, (S,S)-3-[2-(3-Butyrylamino-2-oxo-2H-pyridin-1-yl)-butyrylamino]-4-oxo-5-(2,3,5,6-tetrafluoro-phenoxy)-pentanoic acid]	1000 to 10000
